US10927123B2, “Modulators of the beta-3 adrenergic receptor useful for the treatment or prevention of disorders related thereto” (Arena Pharmaceuticals, Inc., priority 2016, dated 2021)
pIC50: −log10 of the molar value.

Biological target: Beta-3 Adrenergic Receptor (Homo sapiens (Human), UniProt P13945)
Assay: HTRF cAMP antagonist assay (IC50 determination)
Type: cell-based
Details: CHO-K1 cells stably expressing recombinant receptor; antagonism of isoproterenol at EC90; cAMP readout
Description: HTRF cAMP assays were performed according to manufacturer's instructions (Cisbio, cAMP Dynamic 2 Assay Kit; #62AM4PEJ). CHO-K1 cells stably expressing recombinant receptor were harvested and suspended in warm PBS to make a 300,000 cells/mL stock. This cell suspension was dispensed into 384 well assay plates (PerkinElmer ProxiPlate #6008280) at 5 μL per well (1500 cells/well) along with a cAMP standard curve.
Compounds were dissolved and serially diluted (5-fold) in DMSO to generate a 10-point dose response stock. The stock was then diluted 100-fold in assay buffer (PBS containing 1 mM IBMX) before a volume of 2.5 μL was added to the cells (the final, top concentration of compound in the dose-response is typically 10 or 100 μM). After a brief incubation, 2.5 μL of isoproterenol stock, prepared at a concentration 4 times its EC90 at the receptor of interest, was added to the wells. The EC90 for isoproterenol, a beta-adrenergic agonist, was determined in separate experiments using standard methods to measure agonist potencies.
Following a 1-hour incubation at room temperature, 5 μL of cAMP-D2 Reagent diluted in Lysis Buffer was added to each well followed by 5 μL of Cryptate Reagent. Plates were further incubated at room temperature for 1 hour prior to reading. Time resolved fluorescence measurements were collected on a suitable, HTRF-capable plate reader.
Counts from the plate reader were fit to the cAMP standard curve on the assay plate in order to determine cAMP concentrations in each well, and these values were used to construct dose-response curves to obtain IC50 values.

Chain of Beta-3 Adrenergic Receptor (P13945 whole entry, species assumed): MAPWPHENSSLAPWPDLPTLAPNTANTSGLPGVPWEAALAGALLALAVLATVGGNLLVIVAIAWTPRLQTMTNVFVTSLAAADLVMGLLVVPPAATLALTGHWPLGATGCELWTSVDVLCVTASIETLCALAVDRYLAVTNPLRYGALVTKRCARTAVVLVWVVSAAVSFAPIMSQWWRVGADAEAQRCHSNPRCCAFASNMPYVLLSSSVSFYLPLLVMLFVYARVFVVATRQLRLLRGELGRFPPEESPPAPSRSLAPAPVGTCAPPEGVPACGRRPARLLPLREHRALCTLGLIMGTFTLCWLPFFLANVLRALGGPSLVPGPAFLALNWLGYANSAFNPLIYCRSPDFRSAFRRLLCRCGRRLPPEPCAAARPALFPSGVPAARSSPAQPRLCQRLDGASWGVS

Structure (SMILES) | pIC50
CCOC(=O)C(C)(C)S(=O)(=O)c1cccc(OC[C@@H](O)CN[C@H]2COC3(CCN(S(=O)(=O)c4cnc5ccccc5c4)CC3)C2)c1 [Compound 145, ethyl 2-(3-((S)-2-hydroxy-3-((R)-8-(quinolin-3-ylsulfonyl)-1-oxa-8-azaspiro[4.5]decan-3-ylamino)propoxy)phenylsulfonyl)-2-methylpropanoate] | 7.09
CCn1cc(S(=O)(=O)N2CCC3(CC2)C[C@@H](NC[C@H](O)COc2cccc(S(=O)(=O)C(F)(F)CO)c2)CO3)c(=O)c2ccccc21 [Compound 298, 3-((R)-3-((S)-3-(3-(1,1-difluoro-2-hydroxyethylsulfonyl)phenoxy)-2-hydroxypropylamino)-1-oxa-8-azaspiro[4.5]decan-8-ylsulfonyl)-1-ethylquinolin-4(1H)-one] | 7.08
O=S(=O)(c1cccc(-c2ccc(CN3CCC3)cc2)c1)N1CCC2(CC1)C[C@H](NC[C@H](O)COc1cccc(S(=O)(=O)C3(CO)CC3)c1)CO2 [Compound 243, (S)-1-((S)-8-(4′-(azetidin-1-ylmethyl)biphenyl-3-ylsulfonyl)-1-oxa-8-azaspiro[4.5]decan-3-ylamino)-3-(3-(1-(hydroxymethyl)cyclopropylsulfonyl)phenoxy)propan-2-ol] | 7.46
CCOc1ccc(-c2ccc(CCNC(C)=O)cc2)cc1S(=O)(=O)N1CCC2(CC1)C[C@@H](NC[C@H](O)COc1cccc(S(=O)(=O)C3(CO)CC3)c1)CO2 [Compound 175, N-(2-(4′-ethoxy-3′-((R)-3-((S)-2-hydroxy-3-(3-(1-(hydroxymethyl)cyclopropylsulfonyl)phenoxy)propylamino)-1-oxa-8-azaspiro[4.5]decan-8-ylsulfonyl)biphenyl-4-yl)ethyl)acetamide] | 6.15
CCC(C)(C)NCc1ccc(-c2cccc(S(=O)(=O)N3CCC4(CC3)C[C@@H](NC[C@H](O)COc3cccc(S(=O)(=O)C5(CO)CC5)c3)CO4)c2)cc1 [Compound 263, (S)-1-(3-(1-(hydroxymethyl)cyclopropylsulfonyl)phenoxy)-3-((R)-8-(4′-((tert-pentylamino)methyl)biphenyl-3-ylsulfonyl)-1-oxa-8-azaspiro[4.5]decan-3-ylamino)propan-2-ol] | 6.12
CCS(=O)(=O)c1cccc(OC[C@@H](O)CN[C@H]2COC3(CCN(S(=O)(=O)c4ccc(OC)c(-c5ccc(C6(N)CC6)cc5)c4)CC3)C2)c1 [Compound 258, (S)-1-((R)-8-(4′-(1-aminocyclopropyl)-6-methoxybiphenyl-3-ylsulfonyl)-1-oxa-8-azaspiro[4.5]decan-3-ylamino)-3-(3-(ethylsulfonyl)phenoxy)propan-2-ol] | 7.56
O=S(=O)(c1cccc(-c2ccc(CNC3CCC3)cc2)c1)N1CCC2(CC1)C[C@@H](NC[C@H](O)COc1cccc(S(=O)(=O)C3(CO)CC3)c1)CO2 [Compound 269, (S)-1-((R)-8-(4′-((cyclobutylamino)methyl)biphenyl-3-ylsulfonyl)-1-oxa-8-azaspiro[4.5]decan-3-ylamino)-3-(3-(1-(hydroxymethyl)cyclopropylsulfonyl)phenoxy)propan-2-ol] | 6.40
Cc1cc(S(=O)(=O)N2CCC3(CC2)C[C@H](NC[C@H](O)COc2cccc(S(=O)(=O)C4(CO)CC4)c2)CO3)ccc1Br [Compound 196, (S)-1-((S)-8-(4-bromo-3-methylphenylsulfonyl)-1-oxa-8-azaspiro[4.5]decan-3-ylamino)-3-(3-(1-(hydroxymethyl)cyclopropylsulfonyl)phenoxy)propan-2-ol] | 7.46
CC(F)S(=O)(=O)c1cccc(OC[C@@H](O)CN[C@H]2COC3(CCN(S(=O)(=O)c4cnc5ccccc5c4)CC3)C2)c1 (stereo partly drawn) [Compound 233, (2S)-1-(3-(1-fluoroethylsulfonyl)phenoxy)-3-((R)-8-(quinolin-3-ylsulfonyl)-1-oxa-8-azaspiro[4.5]decan-3-ylamino)propan-2-ol] | 8.01
CCOc1c(S(=O)(=O)N2CCC3(CC2)C[C@@H](NC[C@H](O)COc2cccc(S(=O)(=O)C4(CO)CC4)c2)CO3)ccc2ccccc12 [Compound 301, (S)-1-((R)-8-(1-ethoxynaphthalen-2-ylsulfonyl)-1-oxa-8-azaspiro[4.5]decan-3-ylamino)-3-(3-(1-(hydroxymethyl)cyclopropylsulfonyl)phenoxy)propan-2-ol] | 6.45
O=S(=O)(CCO)c1cccc(OC[C@@H](O)CN[C@H]2COC3(CCN(S(=O)(=O)c4cccc(-c5cccc(C(F)(F)F)n5)c4)CC3)C2)c1 [Compound 125, (S)-1-(3-(2-hydroxyethylsulfonyl)phenoxy)-3-((R)-8-(3-(6-(trifluoromethyl)pyridin-2-yl)phenylsulfonyl)-1-oxa-8-azaspiro[4.5]decan-3-ylamino)propan-2-ol] | 7.31
O=S(=O)(c1cnc2cccn2c1)N1CCC2(CC1)C[C@@H](NC[C@H](O)COc1cccc(S(=O)(=O)C3(CO)CC3)c1)CO2 [Compound 302, (S)-1-(3-(1-(hydroxymethyl)cyclopropylsulfonyl)phenoxy)-3-((R)-8-(pyrrolo[1,2-a]pyrimidin-3-ylsulfonyl)-1-oxa-8-azaspiro[4.5]decan-3-ylamino)propan-2-ol] | 6.16
CS(=O)(=O)c1cccc(OC[C@@H](O)CNC2COC3(CCN(C(=O)c4c[nH]c5ccccc45)CC3)C2)c1 (stereo partly drawn) [Compound 66, (3-((S)-2-hydroxy-3-(3-(methylsulfonyl)phenoxy)propylamino)-1-oxa-8-azaspiro[4.5]decan-8-yl)(1H-indol-3-yl)methanone] | 6.01
NCc1ccc(-c2cccc(S(=O)(=O)N3CCC4(CC3)C[C@@H](NC[C@H](O)COc3cccc(S(=O)(=O)C5(CO)CC5)c3)CO4)c2)cc1 [Compound 157, (S)-1-((R)-8-(4′-(aminomethyl)biphenyl-3-ylsulfonyl)-1-oxa-8-azaspiro[4.5]decan-3-ylamino)-3-(3-(1-(hydroxymethyl)cyclopropylsulfonyl)phenoxy)propan-2-ol] | 7.59
CS(=O)(=O)c1cccc(OC[C@@H](O)CNC2COC3(CCN(S(=O)(=O)c4cccc(-c5ccc(CN)cc5)c4)CC3)C2)c1 (stereo partly drawn) [Compound 41, (2S)-1-(8-(4′-(aminomethyl)biphenyl-3-ylsulfonyl)-1-oxa-8-azaspiro[4.5]decan-3-ylamino)-3-(3-(methylsulfonyl)phenoxy)propan-2-ol] | 7.86

Continued, values first:

pIC50 | Structure (SMILES)
7.95 | CS(=O)(=O)c1cccc(OC[C@@H](O)CN[C@H]2COC3(CCN(S(=O)(=O)c4cnc5cc[nH]c5c4)CC3)C2)c1 [Compound 320, (S)-1-((R)-8-(1H-pyrrolo[3,2-b]pyridin-6-ylsulfonyl)-1-oxa-8-azaspiro[4.5]decan-3-ylamino)-3-(3-(methylsulfonyl)phenoxy)propan-2-ol]
6.88 | N#CCS(=O)(=O)c1cccc(OC[C@@H](O)CNC2COC3(CCN(S(=O)(=O)c4ccc5ccccc5c4)CC3)C2)c1 (stereo partly drawn) [Compound 12, 2-(3-((2S)-2-hydroxy-3-(8-(naphthalen-2-ylsulfonyl)-1-oxa-8-azaspiro[4.5]decan-3-ylamino)propoxy)phenylsulfonyl)acetonitrile]
7.98 | CS(=O)(=O)c1cccc(OC[C@@H](O)CN[C@H]2COC3(CCN(S(=O)(=O)c4cnc5ccccc5c4)CC3)C2)c1 [Compound 118, (S)-1-(3-(methylsulfonyl)phenoxy)-3-((R)-8-(quinolin-3-ylsulfonyl)-1-oxa-8-azaspiro[4.5]decan-3-ylamino)propan-2-ol]
7.49 | CS(=O)(=O)c1cccc(OC[C@@H](O)CNC2COC3(CCN(S(=O)(=O)c4cccc(-c5ccncc5)c4)CC3)C2)c1 (stereo partly drawn) [Compound 43, (2S)-1-(3-(methylsulfonyl)phenoxy)-3-(8-(3-(pyridin-4-yl)phenylsulfonyl)-1-oxa-8-azaspiro[4.5]decan-3-ylamino)propan-2-ol]
7.36 | CS(=O)(=O)c1cccc(OC[C@@H](O)CN[C@H]2COC3(CCN(S(=O)(=O)c4c[nH]c5ccccc45)CC3)C2)c1 [Compound 311, (S)-1-((R)-8-(1H-indol-3-ylsulfonyl)-1-oxa-8-azaspiro[4.5]decan-3-ylamino)-3-(3-(methylsulfonyl)phenoxy)propan-2-ol]
7.67 | CS(=O)(=O)c1cccc(OC[C@@H](O)CNC2COC3(CCN(S(=O)(=O)c4cccc(Br)c4)CC3)C2)c1 (stereo partly drawn) [Compound 69, (2S)-1-(8-(3-bromophenylsulfonyl)-1-oxa-8-azaspiro[4.5]decan-3-ylamino)-3-(3-(methylsulfonyl)phenoxy)propan-2-ol]
7.34 | Cc1cccc(S(=O)(=O)N2CCC3(CC2)CC(NC[C@H](O)COc2cccc(S(C)(=O)=O)c2)CO3)c1 (stereo partly drawn) [Compound 48, (2S)-1-(3-(methylsulfonyl)phenoxy)-3-(8-(m-tolylsulfonyl)-1-oxa-8-azaspiro[4.5]decan-3-ylamino)propan-2-ol]
7.61 | CS(=O)(=O)c1cccc(OC[C@@H](O)CNC2COC3(CCN(S(=O)(=O)c4ccc5[nH]ccc5c4)CC3)C2)c1 (stereo partly drawn) [Compound 62, (2S)-1-(8-(1H-indol-5-ylsulfonyl)-1-oxa-8-azaspiro[4.5]decan-3-ylamino)-3-(3-(methylsulfonyl)phenoxy)propan-2-ol]
